# Data: patent US20030059771A1, “Compositions and methods related to the Rig tumor suppressor gene and protein” (THE UNITED STATES OF AMERICA, Department of Health and …, priority 2001, published 2003)
# Columns and labels:
# prenylation of GST-Rig = assay: In vitro prenylation assay with farnesyl transferase inhibitor (mevalonate prenylation in rabbit reticulocyte lysate); assay type: biochemical, human
# Description: In this Example, experiments performed to determine the in vitro prenylation characteristics of Rig, Ras and Rap are described. Radiolabelled farnesyl pyrophosphate, radiolabelled geranylgeranyl pyrophosphate or radiolabelled mevalonate were alternatively used as substrates in these assays, to determine the prenylation specificity of each GTPase protein. In addition, the ability of a farnesyl transferase inhibitor (FTI; namely, FTI-277, Calbiochem, Catalog No. 344555) to inhibit the prenylation of Rig, Ras and Rap was examined. Purified GST-Rig, GST-H-Ras (G12V) and GST-Rap fusion proteins were used in the in vitro prenylation experiments. The H-Ras(G12V) protein was included in the prenylation assays to serve as a positive control (Clark et al., Proc. Natl. Acad. Sci. USA 90:4887-4891 [1993]). […]
# (§1) Each in vitro prenylation reaction contained approximately 1-2 μg alternatively of GST, GST-Rig, GST-H-Ras(G12V) or GST-Rap. […] The gel was soaked in fixing buffer (water with 10% methanol and 10% acetic acid), soaked in autofluor (National Diagnostics, Catalog No. LS315) and analyzed by autoradiography.
# (§2) In a second experiment, the sensitivity of mevalonate prenylation of GST-Rig, GST-Ras and GST-Rap, to increasing amounts of farnesyl transferase inhibitor (FTI-277; Calbiochem) was assessed. […] The gel was fixed, soaked in autofluor and analyzed by autoradiography.
# [1] = test system: prenylation of GST-Ras(G12V); assay: as above; assay type: biochemical
# Description: (§3) In this Example, experiments performed to determine the in vitro prenylation characteristics of Rig, Ras and Rap are described. Radiolabelled farnesyl pyrophosphate, radiolabelled geranylgeranyl pyrophosphate or radiolabelled mevalonate were alternatively used as substrates in these assays, to determine the prenylation specificity of each GTPase protein. In addition, the ability of a farnesyl transferase inhibitor (FTI; namely, FTI-277, Calbiochem, Catalog No. 344555) to inhibit the prenylation of Rig, Ras and Rap was examined. Purified GST-Rig, GST-H-Ras (G12V) and GST-Rap fusion proteins were used in the in vitro prenylation experiments. The H-Ras(G12V) protein was included in the prenylation assays to serve as a positive control (Clark et al., Proc. Natl. Acad. Sci. USA 90:4887-4891 [1993]).
# (§4) The GST-Rig fusion construct was made by cloning a restriction fragment containing the Rig ORF in frame into the BamHI/EcoRI sites of pGEX-2T (Pharmacia). The vector encoding GST-H-Ras(G12V) was made by subcloning an H-Ras (G12V) BamHI/EcoRI PCR product into the BamHI/EcoRI sites of the pGEX-2T vector. The product was confirmed by sequencing. The GST-Rap fusion construct was produced as described by Clark et al. (Clark et al., J. Biol. Chem., 272:10608-10615 [1997]).
# (§5) The resulting plasmids were transformed into competent XL1-Blue Escherichia coli (Stratagene), and the GST-fusion proteins produced by the bacteria were isolated by standard techniques, according to the manufacturer's protocol (Pharmacia), with minor modification (inclusion of 100 μM GTP and the omission of EDTA from the protein collection/purification buffers). Briefly, bacteria were grown to an OD600 of 0.1 in LB broth. At that time, […] isopropyl-β-thiogalactopyranoside (IPTG) was added to the culture. Four hours following IPTG induction, the bacteria were pelleted at 3,000 RPM for 20 minutes, and resuspended in 5 mL lysis buffer (phosphate buffered saline [PBS] containing 100 μM GTP, 0.1% Triton X−100, leupeptin and aprotinin). The lysate was sonicated, then clarified by centrifugation at 10,000 RPM for 30 minutes. The resulting lysate was used as starting material for glutathione-conjugated agarose bead purification (Sigma) using standard techniques. […]
# as §1, §2
# prenylation of GST-Rap = assay: as above; assay type: biochemical; details: 1-100 nM FTI concentration range
# Description: as §3, §4, §5, §1, §2
# Raf-1 = molecular target: T1, Raf-1 (Homo sapiens, UniProt P04049); assay: In vivo Rig/Raf-1 co-immunoprecipitation in HEK-293T cells; assay type: binding; details: HEK-293T cells co-transfected with HA-Raf-1
# T1 construct: HA-RAF-1 fusion protein expression vector was produced by generating a full-length BamHI-compatible PCR fragment from a Raf-1 template; expressed in transfected cells; host or cells: HEK-293T
# Description: In this Example, experiments to assess the ability of Rig and Raf-1 to interact in vivo are described. These experiments (results shown in FIG. 9) used a standard in vivo co-transfection/co-immunoprecipitation protocol, where cultured mammalian cells were cotransfected with FLAG-tagged and/or hemagglutinin (HA)-tagged mammalian expression vector constructs, followed by immunoprecipitation with an anti-Raf-1 antibody and Western immunoblotting using either anti-FLAG or anti-HA primary detection antibodies. The assay was conducted using HEK-293T cells, a transformed human embryonal kidney cell line.
# Briefly, HA-RAF-1 fusion protein expression vector was produced by generating a full-length BamHI-compatible PCR fragment from a Raf-1 template (Fabian et al., Proc. Natl. Acad.Sci. USA 91:5982-5986 [1994]), then cloned into the BamHI site of pCGN, which also encodes the HA epitope (Fiordalisi et al, Methods Enzymol., 332:3-36 [2001]). The construct was confirmed by sequencing.
# A pCDNA3.1 (FLAG) expression vector was produced by inserting the FLAG epitope in-frame upstream of the BamHI restriction site of the multiple cloning region of pCDNA3.1 (Invitrogen). […]
# Following transfection, the cells were cultured in DMEM containing 1% FBS for 48 hours. […] Membranes were then incubated in enhanced chemiluminescent substrate (ECL; Amersham) and the signal was detected on X-ray film.
# [2] = FTI 1-100 nM, [3H]-mevalonate, one hour at 30 °C
Molecule,farnesylation of GST-Rig at 100 nM FTI (prenylation of GST-Rig; 100 nM FTI concentration),sensitivity of mevalonate prenylation (radiolabelling) of GST-Rig to FTI (prenylation of GST-Rig; [2]),farnesylation of GST-Ras at 100 nM FTI ([1]; 100 nM FTI concentration),"sensitivity of mevalonate prenylation (radiolabelling) of GST-Ras to FTI [1, 2]","sensitivity of GST-Ras prenylation relative to GST-Rig ([1]; comparison of the two proteins, FTI 1-100 nM)",sensitivity of GST-Rap farnesylation by mevalonate to FTI (prenylation of GST-Rap),co-precipitation with Raf-1 (anti-Raf-1 immunoprecipitation) (Raf-1)
COC(=O)[C@H](CCSC)NC(=O)c1ccc(NC[C@@H](N)CS)cc1-c1ccccc1 [FTI-277],completely abolished,sensitive,completely abolished,sensitive,greater sensitivity,did not show sensitivity,
"FLAG-Rig: FLAG-tagged recombinant Rig protein expressed from pCDNA-FLAG (protein, left off: small tags and cut ends) MPEQSNDYRVVVFGAGGVGKSSLVLRFVKGTFRDTYIPTIEDTYRQVISCDKSVCTLQITDTTGSHQFPAMQRLSISKGHAFILVFSVTSKQSLEELGPIYKLIVQIKGSVEDIPVMLVGNKCDETQREVDTREAQAVAQEWKCAFMETSAKMNYNVKELFQELLTLETRRNMSLNIDGKRSGKQKRTDRVKGKCTLM",,,,,,,coprecipitated
